Source: ChEMBL document CHEMBL1128776, “Palladium-catalyzed synthesis of (E)-5-(2-acylvinyl)-2-deoxyuridines and their antiviral and cytotoxic activities” (Bioorg Med Chem Lett, 1995)
Values after ≈ are worked out from the molar mass of the structure shown.

Experiments:
Vero [1] = experiment: Evaluated in vitro for antiviral activity in vero cell cultures against Parainfluenza virus type 3; type: functional; conditions: Chlorocebus sabaeus
HEL [2] = experiment: Evaluated in vitro for antiviral activity in human embryonic lung (HEL) cell cultures against TK- Varicella-Zoster virus (VZV) strain YS/R; type: functional, cell-based
E6SM [3] = experiment: In vitro antiviral activity in E6 cell cultures against herpes simplex virus type 1 (HSV-1) strain KOS; type: functional; conditions: Homo sapiens
Vero [4] = experiment: Evaluated in vitro for antiviral activity in vero cell cultures against Coxsackie virus type B4; type: functional; conditions: Chlorocebus sabaeus
HEL [5] = experiment: Minimum cytotoxic concentration against human embryonic lung (HEL) cells; type: functional
HEL [6] = experiment: Evaluated in vitro for antiviral activity in HeLa cell cultures against vesicular stomatitis virus (VSV); type: functional; conditions: Homo sapiens
HEL [7] = experiment: Evaluated in vitro for antiviral activity in human embryonic lung (HEL) cell cultures against TK - VZV strain OKA; type: functional, cell-based
L1210 = experiment: Evaluated in vitro for cytostatic activity against murine leukemia cells (L1210); type: functional, cell-based; conditions: Mus musculus
CCRF-CEM [8] = experiment: 50% effective concentration required to protect CEM cells against the cytopathogenicity of HIV-1; type: functional, cell-based; conditions: Homo sapiens
HEL [9] = experiment: Evaluated in vitro for antiviral activity in human embryonic lung (HEL) cell cultures against TK + VZV strain OKA; type: functional, cell-based
Vero [10] = experiment: Evaluated in vitro for antiviral activity in vero cell cultures against Reovirus type 1; type: functional; conditions: Chlorocebus sabaeus
HEL [11] = experiment: Evaluated in vitro for antiviral activity in human embryonic lung (HEL) cell cultures against Varicella-Zoster virus (VZV) strain YS; type: functional, cell-based
E6SM [12] = experiment: In vitro antiviral activity in E6 cell cultures against vaccinia virus (VV); type: functional; conditions: Homo sapiens
E6SM [13] = experiment: In vitro antiviral activity in E6 cell cultures against herpes simplex virus type 1 (HSV-1) TK- B2006; type: functional; conditions: Homo sapiens
CCRF-CEM [14] = experiment: Evaluated in vitro for cytostatic activity against CEM cells; type: functional, cell-based; conditions: Homo sapiens
HEL [15] = experiment: Evaluated in vitro for antiviral activity in human embryonic lung (HEL) cell cultures against cytomegalovirus (CMV) strain Davis; type: functional, cell-based
CCRF-CEM [16] = experiment: 50% effective concentration required to protect CEM cells against the cytopathogenicity of HIV-2; type: functional, cell-based; conditions: Homo sapiens
FM3A = experiment: Evaluated in vitro for cytostatic activity against murine mammary carcinoma cells (FM3A); type: functional, cell-based; conditions: Mus musculus
HEL [17] = experiment: Cytotoxic concentration required to reduce cell growth HEL cells (after 3 days) by 50 %; type: functional; conditions: Homo sapiens, 72 h
E6SM [18] = experiment: In vitro antiviral activity in E6 cell cultures against vesicular stomatitis virus (VSV); type: functional; conditions: Homo sapiens
E6SM [19] = experiment: In vitro antiviral activity in E6 cell cultures against herpes simplex virus type 2 (HSV-2) strain G; type: functional; conditions: Homo sapiens
Vero [20] = experiment: Minimum cytotoxic concentration against vero cells; type: functional; conditions: Chlorocebus sabaeus
MOLT-4 = experiment: Evaluated in vitro for cytostatic activity against human T-lymphocyte cells (Molt 4/C8); type: functional, cell-based
E6SM [21] = experiment: Minimum cytotoxic concentration against E6SM cells; type: functional; conditions: Homo sapiens
Vero [22] = experiment: Evaluated in vitro for antiviral activity in vero cell cultures against Sindbis virus; type: functional; conditions: Chlorocebus sabaeus
E6SM [23] = experiment: In vitro antiviral activity in E6 cell cultures against herpes simplex virus type 1 (HSV-1) TK- VMW 1837; type: functional; conditions: Homo sapiens
HEL [24] = experiment: Evaluated in vitro for antiviral activity in HeLa cell cultures against polio virus type 1; type: functional; conditions: Homo sapiens
HEL [25] = experiment: (§1) Evaluated in vitro for antiviral activity in human embryonic lung (HEL) cell cultures against cytomegalovirus (CMV) strain AD-169; type: functional
Vero [26] = experiment: Evaluated in vitro for antiviral activity in vero cell cultures against forest virus; type: functional; conditions: Chlorocebus sabaeus
HeLa = experiment: Minimum cytotoxic concentration against HeLa cells; type: functional; conditions: Homo sapiens
HEL [27] = experiment: Evaluated in vitro for antiviral activity in human embryonic lung (HEL) cell cultures against TK+ VZV strain OKA; type: functional, cell-based
HEL [28] = experiment: Evaluated in vitro for antiviral activity in human embryonic lung (HEL) cell cultures against TK- VZV strain 07/1; type: functional, cell-based
E6SM [29] = experiment: Evaluated in vitro for its antiviral activity in E6 cell cultures against herpes simplex virus type 2 (HSV-2) strain G; type: functional; conditions: Homo sapiens
E6SM [30] = experiment: Evaluated in vitro for its antiviral activity in E6 cell cultures against vaccinia virus (VV); type: functional; conditions: Homo sapiens
E6SM [31] = experiment: Evaluated in vitro for its antiviral activity in E6 cell cultures against vesicular stomatitis virus (VSV); type: functional; conditions: Homo sapiens
E6SM [32] = experiment: Evaluated in vitro for its antiviral activity in E6 cell cultures against herpes simplex virus type 1 (HSV-1) strain KOS; type: functional; conditions: Homo sapiens
E6SM [33] = experiment: Evaluated in vitro for its antiviral activity in E6 cell cultures against herpes simplex virus type 1 (HSV-1) TK- B2006; type: functional; conditions: Homo sapiens
E6SM [34] = experiment: Evaluated in vitro for its antiviral activity in E6 cell cultures against herpes simplex virus type 1 (HSV-1) TK- VMW 1837; type: functional; conditions: Homo sapiens
HEL [35] = experiment: Evaluated in vitro for antiviral activity in human embryonic lung (HEL) cell cultures against […] TK- strain 07/1; type: functional, cell-based
HEL [36] = experiment: Evaluated in vitro for antiviral activity in human embryonic lung (HEL) cell cultures against TK+ Varicella-Zoster virus (VZV) strain YS; type: functional, cell-based
HEL [37] = experiment: as §1; type: functional, cell-based

Row | SMILES | MIC (Vero [1]) [µg/mL] | IC50 (HEL [2]) [µg/mL] | MIC (E6SM [3]) [µg/mL] | MIC (Vero [4]) [µg/mL] | MCC (HEL [5]) [µg/mL] | MIC (HEL [6]) [µg/mL] | IC50 (L1210) [µg/mL] | EC50 (CCRF-CEM [8]) [µg/mL] | MIC (Vero [10]) [µg/mL] | IC50 (HEL [11]) [µg/mL] | MIC (E6SM [12]) [µg/mL] | IC50 (HEL [15]) [µg/mL] | CC50 (HEL [17]) [µg/mL] | MCC (Vero [20]) [µg/mL] | MCC (E6SM [21]) [µg/mL] | MIC (Vero [22]) [µg/mL] | MIC (HEL [24]) [µg/mL] | MIC (Vero [26]) [µg/mL] | MCC (HeLa) [µg/mL] | IC50 (HEL [27]) [µg/mL] | further results
1 | O=C(/C=C/c1cn([C@H]2C[C@H](O)[C@@H](CO)O2)c(=O)[nH]c1=O)c1ccccc1 | > 200 | > 20 | > 10 | > 200 | 50 | 70 (≈ 195 µM) | 30 (≈ 83.7 µM) | > 20 | > 200 | > 20 | > 10 | > 20 | 140 (≈ 391 µM) | 400 | 40 | > 200 | > 100 | > 200 | 20 | – | IC50 (HEL [7]): > 20 µg/mL; IC50 (HEL [9]): > 20 µg/mL; MIC (E6SM [13]): > 10 µg/mL; IC50 (CCRF-CEM [14]): 24 µg/mL (≈ 67 µM); EC50 (CCRF-CEM [16]): > 20 µg/mL; IC50 (FM3A): 32 µg/mL (≈ 89.3 µM); MIC (E6SM [18]): > 10 µg/mL; MIC (E6SM [19]): > 10 µg/mL; IC50 (MOLT-4): 23 µg/mL (≈ 64.2 µM); MIC (E6SM [23]): > 10 µg/mL; MIC (HEL [25]): > 20 µg/mL
2 | COc1ccc(C(=O)/C=C/c2cn([C@H]3C[C@H](O)[C@@H](CO)O3)c(=O)[nH]c2=O)cc1 | > 40 | > 20 | > 10 | > 40 | 20 | > 100 | > 100 | > 40 | > 40 | > 20 | > 10 | > 5 | > 200 | 100 | 40 | > 40 | > 100 | > 40 | 20 | > 20 | MIC (E6SM [13]): > 10 µg/mL; IC50 (CCRF-CEM [14]): > 100 µg/mL; EC50 (CCRF-CEM [16]): > 40 µg/mL; IC50 (FM3A): > 100 µg/mL; MIC (E6SM [18]): > 10 µg/mL; MIC (E6SM [19]): > 10 µg/mL; IC50 (MOLT-4): > 100 µg/mL; MIC (E6SM [23]): > 10 µg/mL; IC50 (HEL [28]): > 20 µg/mL; MIC (HEL [25]): > 5 µg/mL
3 | O=c1[nH]c(=O)n([C@H]2C[C@H](O)[C@@H](CO)O2)cc1/C=C/Br [BRIVUDINE] | > 400 | > 50 | – | > 400 | > 50 | > 400 | – | – | > 400 | 0.002 (≈ 0.006 µM) | – | – | 150 (≈ 450 µM) | > 400 | > 400 | > 400 | > 400 | > 400 | > 400 | 0.0008 (≈ 0.0024 µM) | MIC (E6SM [29]): 100 µg/mL (≈ 300 µM); MIC (E6SM [30]): 10 µg/mL (≈ 30 µM); MIC (E6SM [31]): > 400 µg/mL; MIC (E6SM [32]): 0.02 µg/mL (≈ 0.06 µM); MIC (E6SM [33]): > 400 µg/mL; MIC (E6SM [34]): > 400 µg/mL; IC50 (HEL [35]): 5 µg/mL (≈ 15 µM)
4 | Nc1ccn(C[C@@H](CO)OCP(=O)(O)O)c(=O)n1.O.O [CIDOFOVIR] | – | 0.05 | – | – | > 50 | – | – | – | – | – | – | 0.075 | > 200 | – | – | – | – | – | – | 0.065 | IC50 (HEL [36]): 0.09 µg/mL; IC50 (HEL [37]): 0.06 µg/mL; IC50 (HEL [28]): 0.055 µg/mL
